We go through three compounds from article PMC5131915, “Platinum(II) Iodido Complexes of 7-Azaindoles with Significant Antiproliferative Effects: An Old Story Revisited with Unexpected Outcomes” (PLoS ONE, 2016).

Broadly, the IC50 is the midpoint of a concentration-inhibition curve.

In data set [1] the test system is A2780 ovarian carcinoma cells. As to the kind of experiment: In vitro cytotoxicity testing (MTT assay), A2780. It counts as cell-based, human. The procedure:
(§1) All cell lines were grown as adherent monolayers at 37°C and 5% CO2 in a humidified atmosphere.
(§2) The MTT assay was used to determine the cell viability; MTT = 3-(4,5-dimethylthiazol-2-yl)-2,5-diphenyltetrazolium bromide. A concentration of the formed dye was evaluated spectrophotometrically at 540 nm (TECAN, Schoeller Instruments LLC).
(§3) The data were expressed as the percentage of viability, where 100% and 0% represents the treatments with negative and positive controls, respectively. The data from the cancer cells were acquired from three independent experiments (conducted in triplicate) using cells from different passages. The resulting IC50 values (μM) were calculated from viability curves and the results are presented as arithmetic mean±SD.
In general terms: Tetrazolium assays rely on reduction of a dye to a coloured formazan, in cell work by metabolically active cells.

The subject of data set [2] is human non-cancerous hepatocytes (Hep). The experiment in a line: In vitro cytotoxicity testing (MTT assay), hepatocytes. Type of data set: cell-based. The settings on record: 24 h drug exposure, no recovery. The procedure: (§4) A2780 ovarian carcinoma, A2780R cisplatin-resistant ovarian carcinoma, HOS osteosarcoma, G361 malignant melanoma, MCF7 breast carcinoma, A549 lung carcinoma, HeLa cervix carcinoma, 22Rv1 prostate carcinoma and Caco-2 colorectal carcinoma human cancer cell lines were purchased from the European Collection of Cell Cultures (ECACC), while the human non-cancerous hepatocytes (Hep) were supplied by Biopredic Intl. The cell lines were cultured, according to the suppliers`instructions, in RPMI-1640 medium supplemented with 10% of fetal calf serum, 1% of 2 mM glutamine, and 1% penicillin/streptomycin. All cell lines were grown as adherent monolayers at 37°C and 5% CO2 in a humidified atmosphere.
(§5) The cells were seeded to 96-well culture plates, pre-incubated in drug-free media at 37°C for 24 h and treated typically with the 0.01–50.0 μM solutions, prepared from the stock solutions by dilution with medium, for 24 h at 37°C. […] In parallel with compounds 1–8 and the reference drugs, the cells were also treated with vehicle (0.1% DMF in medium; negative control) and Triton X-100 (1%; positive control) to assess the minimal and maximal cell damage, respectively. The MTT assay was used to determine the cell viability; MTT = 3-(4,5-dimethylthiazol-2-yl)-2,5-diphenyltetrazolium bromide. A concentration of the formed dye was evaluated spectrophotometrically at 540 nm (TECAN, Schoeller Instruments LLC).
as §3

In data set [3] the test system is Caco-2 colorectal carcinoma cells. As to the kind of experiment: In vitro cytotoxicity testing (MTT assay), Caco-2. It counts as cell-based, human. The settings on record: for IC50: 24 h drug exposure, no recovery, MTT, read-out: IC50±SD, Caco-2; for selectivity factor IC50(Hep)/IC50(cancer cell line): Caco-2. The method, then: as §1, §2, §3
Data set [4] relates to spleen, renal tissue and tumour tissues of L1210 leukaemia-bearing mice. As to the kind of experiment: Histological observations (light microscopy, semi-quantitative). The conditions noted are these: relative scale 0 to 4.
Description: Randomly selected paraffin block preparations were stained by standard hematoxylin and eosin stain for light microscopic evaluation. Due to high cellularity, the semi-quantitative method was used for the evaluation of necrosis in well-circumcised and diffuse tumour samples and PMN cells infiltration in normal tissues as an indirect sign of toxicity to healthy tissues. The evaluation of necrotic processes and infiltration by PMN cells was semi-quantitative, based on the percentage of necrotic areas and/or infiltrated area in the view-field of at least three different samples.
In data set [5] the test system is 22Rv1 prostate carcinoma cells. The experiment in a line: In vitro cytotoxicity testing (MTT assay), 22Rv1. The conditions noted are these: 24 h drug exposure, no recovery, read-out: IC50±SD, 22Rv1. It counts as cell-based, human. The procedure:
as §4, §5, §3

The test system of another data set is p53. As to the kind of experiment: Ex vivo Western blot of tumour tissues, p53. Type of data set: in vivo, mice. The settings on record: pooled tumour samples. The method, then: Frozen tumour samples were homogenized by a bench blender IKA DI25 (IKA-Werke, Germany) in the presence of a lysis buffer [cOmplete Protease Inhibitor Cocktail (Roche, Germany), 50 mM Tris-HCl pH 7.5, 1 mM EGTA, 1 mM EDTA, 1 mM sodium orthovanadate, 50 mM sodium fluoride, 5 mM sodium pyrophosphate, 270 mM sucrose, 0.5% (v/v) Triton X-100]. Subsequently, the blended samples were centrifuged at 9.000 g at 4°C for 15 min. The supernatants were collected and the protein concentration was measured by the Brandford’s method using the Brandford reagent (Amresco, USA) according to the manufacturer’s manual. The measured samples were stored at -80°C for the following experiments.
The expression of caspase 3, MCL-1, p53, and β-actin as loading control were evaluated by Western blot analysis and immunodetection. Lysates were mixed with a denaturing loading dye [250 mM Tris-HCl pH 6.8, 5% (v/v) β-mercaptoethanol, 10% (w/v) sodium dodecyl sulfate, 30% (v/v) glycerol, 0.04% (w/v) bromophenol blue], heated for 5 min at 70°C. To eliminate intra-species variability, and to obtain the same amount of proteins from all experimental groups, all samples from one group of animals were pooled together and loaded onto a 15% polyacrylamide denaturing gel. The final protein amount was 50 μg per well. After protein separation in the gel, they were transferred on the Immun-Blot polyvinylidene difluoride membrane 0.2 μm (Bio-Rad, USA). Then, the membrane was blocked by 5% (w/v) BSA in TBST [10 mM Tris-HCl pH 7.5, 150 mM NaCl, 0.1% (v/v) Tween-20]. […] HRP was detected by Clarity Western ECL Substrate (Bio-Rad, USA) using chemiluminescent documentation system Syngene PXi-4 (UK).
(In western blotting, separated proteins are transferred to a membrane and probed.)

Data set [6] relates to MCF7 breast carcinoma cells. As to the kind of experiment: In vitro cytotoxicity testing (MTT assay), MCF7. It counts as cell-based, human. The settings on record: 24 h drug exposure, no recovery, read-out: IC50±SD, MCF7. The method, then:
as §4, §5, §3

Data set [7] has as its system A2780R cisplatin-resistant ovarian carcinoma cells. As to the kind of experiment: In vitro cytotoxicity testing (MTT assay), A2780R. It counts as cell-based, human. The conditions noted are these: for resistance factor (RF), IC50(A2780R)/IC50(A2780): 24 h IC50 values; for IC50: 24 h drug exposure, no recovery, MTT, read-out: IC50±SD, A2780R. The method, then: as §1, §2, §3

Data set [8] has as its system A2780 cells. The experiment in a line: Cell cycle analysis (PI/RNase, flow cytometry), A2780. The settings on record: A2780, 24 h, IC50 concentration. It counts as cell-based, human. On the technique in general: Flow cytometry measures light scatter and fluorescence of single cells or particles in a stream.
Protocol: The A2780 and MCF7 cells (1.0 × 10^6 per well) were pre-incubated in a six-well plate for 24 h as described above. […] After 24 h, floating cells were collected and attached cells were harvested using trypsin/EDTA in PBS. Total cells were washed twice with PBS and fixed in 70% ethanol. Cells were re-suspended in PBS and DNA staining was achieved by a solution of propidium iodide (PI) supplemented with RNase A (30 min, 25°C, in the dark). […] The data were analysed using CytExpert™ software (Beckman Coulter).
In data set [9] the test system is A2780 cells. The experiment in a line: Cellular accumulation of platinum (ICP-MS). The conditions noted are these: 24 h treatment at IC50 concentration. It counts as cell-based, human. The procedure:
The A2780 cells were seeded in 6-well culture plates (1×10^6 cells per well) and incubated overnight (37°C and 5% CO2 in a humidified incubator). […] The cells were washed with PBS (2 × 2 mL) after 24 h treatment, harvested by trypsin treatment, collected and centrifuged in PBS. The supernatants were discarded after centrifugation and pellets were digested in 500 μL of nitric acid (3 min at 150°C) using a microwave system Monowave300 (Anton Paar). Solutions were diluted with 4.5 mL of water and the platinum content was determined by ICP-MS. The obtained values were corrected for adsorption effects. The experiments were conducted in triplicate and the results are presented as arithmetic mean±SD.

The mark [10] stands for this setting: 24 h drug exposure, no recovery, MTT, read-out: IC50±SD, A2780.

Molecules are shown by their SMILES. Like-named read-outs stand apart in the source and are kept apart here.

On to `Cc1cc2c(Cl)cc[n+]([Pt-2]([I])([I])[n+]3ccc(Cl)c4cc(C)[nH]c43)c2[nH]1` [Complex 8, cis-[PtI2(2Me4Claza)2]], for which, in data set [1] (setting [10]), the half-inhibitory concentration (IC50) amounted to 1.7 ± 0.3 µM. The same compound came in with a 50% inhibitory concentration (IC50) in data set [2] of 9.5 µM. For the same compound, in [3], the IC50 was 0.4 ± 0.2 µM and the “selectivity factor IC50(Hep)/IC50(cancer cell line)” value is roughly 24. In [4], the “Areas of necrosis in tumour tissues” value was 3 (3 = up to 75%), the “Infiltration of renal tissues (PMN cells)” value is given as 0–1 and the “Infiltration of spleen (PMN cells)” value is on record as 1–2. For the same compound, the IC50 in [5] came to 3.5 ± 0.2 µM. Moreover, the “p53 level in tumour tissue” value in the data set on p53 is “attenuated”. Further, in [6], the IC50 turned out to be 2.1 ± 1 µM. In data set [7], the “resistance factor (RF), IC50(A2780R)/IC50(A2780)” value came to 0.59 and the IC50 amounted to 1 ± 0.4 µM. Moreover, in the data set with A2780 cells [8], the G0/G1 population is listed as 55.2±2.2%, the G2/M population came out at 23.9±2.3%, the S population stood at 18.3±1.3% and the sub-G1 population was found to be 2.2±0.4%.
As to `N.N.[Cl][Pt][Cl]` [Cisplatin, cisplatin, reference compound], the half-maximal inhibitory concentration (IC50) in data set [2] was greater than 75 µM. For the same compound, the cellular accumulation in the data set with A2780 cells [9] was determined as 535±16 pmol Pt/10^6 A2780 cells. Besides, in data set [4], the “Areas of necrosis in tumour tissues” value is recorded as 3 (3 = up to 75%), the “Infiltration of renal tissues (PMN cells)” value was 1 (1 = up to 25%) and the “Infiltration of spleen (PMN cells)” value is listed as 1 (1 = up to 25%). For the same compound, the half-inhibitory concentration (IC50) in data set [5] amounted to 26.9 ± 3.5 µM. Also, the 50% inhibitory concentration (IC50) in data set [6] was 17.9 ± 3.5 µM. Moreover, the IC50 in [7] was greater than 50 µM. In the data set on A2780 cells [8], the G0/G1 population is listed as 23.7±1.5%, the G2/M population came out at 23.0±2.2%, the S population worked out at 50.6±2.8% and the sub-G1 population was 2.0±0.2%.
As to `Brc1cc[n+]([Pt-2]([I])([I])[n+]2ccc(Br)c3cc[nH]c32)c2[nH]ccc12` [Complex 6, cis-[Pt(4Braza)2I2]], in data set [1] (6 h exposure, read-out: IC50, A2780, time-dependent cytotoxicity), the IC50 turned out to be 8.2 ± 0.5 µM. Also, the IC50 in data set [1] (setting [10]) is 3.2 ± 0.2 µM. The IC50 in data set [1] (48 h exposure, read-out: IC50, A2780, time-dependent cytotoxicity) amounted to 0.4 ± 0.1 µM. This compound showed an IC50 in [2] of 4.1 µM. In data set [3], the IC50 was determined as 0.4 ± 0.3 µM and the “selectivity factor IC50(Hep)/IC50(cancer cell line)” value was roughly 10. Moreover, the cellular accumulation in the data set on A2780 cells [9] came out at 598±97 pmol Pt/10^6 A2780 cells. Also, in data set [4], the “Areas of necrosis in tumour tissues” value is 1–2, the “Infiltration of renal tissues (PMN cells)” value is listed as 1 (1 = up to 25%) and the “Infiltration of spleen (PMN cells)” value is given as 2 (2 = up to 50%). For the same compound, in data set [5], the IC50 is 3.8 ± 0.1 µM. In addition, the “p53 level in tumour tissue” value in the data set on p53 is “did not affect”. The half-inhibitory concentration (IC50) in data set [6] amounted to 1 ± 0.4 µM. Also, in data set [7], the “resistance factor (RF), IC50(A2780R)/IC50(A2780)” value was found to be 1.03 and the IC50 was determined as 3.3 ± 0.4 µM. Also, in the data set with A2780 cells [8], the G0/G1 population is reported as 51.5±3.2%, the G2/M population is 26.3±1.6%, the S population is 17.5±0.9% and the sub-G1 population is listed as 4.3±1.4%.
